In patent publication US9238637B2, “Stable polymorphic forms of compound as hypoxia mimetics, and uses thereof” (BEIJING BETTA PHARMACEUTICALS CO., LTD, priority 2011, dated 2016):
pIC50: −log10 of the molar value.

Columns and labels:
full length PHD2 = molecular target: T1, full length PHD2 (Homo sapiens, UniProt Q9GZT9); experiment: Assay of HIF-PHD2 enzyme activity (homogeneous TR-FRET); format: biochemical; conditions: 600 nM full length PHD2, 0.2 μM 2-oxoglutarate, 0.5 μM HIF-1α peptide, 2 hrs room temperature
T1 construct: containing 600 nM full length PHD2
Description: HIF-PHD2 activity was measured using homogeneous TR-FRET technology (see also, US2008/004817; Dao J H et al., Anal Biochem. 2009, 384:213-23). To each well of a ½Area 96-well plate was added 2 μL DMSO solution of test compound and 40 μL of assay buffer (50 mM Tris PH7.4/0.01% Tween-20/0.1 mg/ml BSA/1 mM Sodium ascorbate/20 μg/ml Catalase/10 μM FeSO4) containing 600 nM full length PHD2. After a 30 min preincubation at room temperature, the enzymatic reactions were initiated by the addition of 8 μL of substrates (final concentrations of 0.2 μM 2-oxoglutarate and 0.5 μM HIF-1α peptide biotinyl-DLDLEMLAPYIPMDDDFQL). After 2 hrs. at room temperature, the reactions were terminated and signals were developed by the addition of a 50 μL quench/detection mix to a final concentration of 1 mM ortho-phenanthroline, 0.1 mM EDTA, 0.5 nM anti-(His)6LANCE reagent, 100 nM AF647-labeled Streptavidin, and 30 nM (His)6-VHL-elonginB-elonginC complex. The ratio of time resolved fluorescence signals at 665 and 620 nm was determined, and percent inhibition was calculated relative to an uninhibited control sample run in parallel.

Erythropoietin (EPO) = experiment: Determination of erythropoietin (EPO) induction in normal mice; format: in vivo; conditions: male C57BL/6 mice, oral suspension in 0.5% CMC, 60 mg/kg, serum 6 hours after dosing
Description: Eight-week-old male C57BL/6 mice were dosed orally with a suspension of one crystal form of the compound in 0.5% CMC at 20, 60 and 100 mg/kg. Blood samples were obtained from the orbital venous plexus 6 hours after dosing and serum was collected (see also, Robinson A, et al., Gastroenterology. 2008, 134:145-55; Hsieh M M, et al., Blood. 2007, 110:2140-7). Samples were analyzed for EPO by electrochemiluminescence-based immunoassay (MSD) according to manufacturer's instructions. The inducted EPO when the Crystalline Form III in this invention was used in suspension was determined to be above 35 folds over that of the vehicle group without induction at the dosage of 60 mg/kg.

[1] = tested on: adenine-induced renal anemic rats; experiment: Efficacy studies in adenine-induced renal anemic rats; format: in vivo, Wistar rats
Description: Six-week-old male Wistar rats were divided to the control group and treatment groups. After given the standard chow for 10 days, the control group continued on the standard chow while the treatment groups were given the standard chow with the addition of 0.75% adenine for 30 days when the treatment groups developed anemia. All the groups were then switched back to the standard chow, and the treatment groups were dosed orally with vehicle or a suspension of one crystal form of the compound in 0.5% CMC-Na at 20, 40 or 80 mg/kg once a day for 4 weeks. Blood samples were obtained from the orbital venous plexus on days 0, 5, 12, 19 and 27. An Automated Hematology Analyzer MEK-6318K was used to determine hematological parameters such as erythrocyte counts (RBC), hemoglobin concentration (HGB), hematocrit value (HCT).

[2] = Stability determination of crystal forms (slurry in ethyl acetate, XRPD); format: physicochemical; conditions: 72 hrs
Description: (§1) 100 mg of the compound of Formula I prepared from the method disclosed in Example 1 above (mixed crystal forms) was added into 2 mL of Ethyl Acetate and stirred at room temperature for 72 hrs. After centrifugation and drying, the resulted crystal form was determined by XRPD to be purely the Crystalline Form III.
as §1, with “50 mg” for “100 mg”, “into 1” for “into 2”, “at 50° C.” for “at room temperature”

T1 sequence (Q9GZT9 whole entry, species assumed): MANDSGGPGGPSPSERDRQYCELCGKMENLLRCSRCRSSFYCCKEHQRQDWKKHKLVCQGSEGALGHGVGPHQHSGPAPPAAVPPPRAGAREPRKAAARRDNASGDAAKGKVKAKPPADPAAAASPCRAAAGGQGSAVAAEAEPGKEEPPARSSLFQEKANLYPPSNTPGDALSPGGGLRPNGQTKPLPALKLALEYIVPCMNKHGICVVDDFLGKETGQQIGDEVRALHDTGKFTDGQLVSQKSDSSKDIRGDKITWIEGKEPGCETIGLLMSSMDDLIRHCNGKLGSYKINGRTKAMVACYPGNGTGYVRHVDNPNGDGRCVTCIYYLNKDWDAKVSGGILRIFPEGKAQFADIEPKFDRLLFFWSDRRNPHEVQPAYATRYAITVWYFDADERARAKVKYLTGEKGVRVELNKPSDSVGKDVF

**Q.** With `Cc1cccc(-c2cccc3c(O)c(C(=O)NCC(=O)O)c(=O)oc23)c1` [compound of Formula I, N-[(4-hydroxy-2-oxo-8-(3-methyl-phenyl)-2H-3-coloralkenyl)carbonyl]glycine] as the compound, how does the pIC50 (full length PHD2) read?
**A.** ~6.82

**Q.** With `Cc1cccc(-c2cccc3c(O)c(C(=O)NCC(=O)O)c(=O)oc23)c1` [Crystalline Form III, N-[(4-hydroxy-2-oxo-8-(3-methyl-phenyl)-2H-3-coloralkenyl)carbonyl]glycine] as the compound, how does the “inducted EPO over that of the vehicle group” value (Erythropoietin (EPO)) read?
**A.** above 35 folds

**Q.** And the HGB ([1]; 20 mg/kg oral once a day, Day 0)?
**A.** 88.0 g/L

**Q.** What about the HGB ([1]; 20 mg/kg oral once a day, Day 5) of the same compound?
**A.** 60.7 g/L

**Q.** What about the HGB ([1]; 20 mg/kg oral once a day, Day 12) of the same compound?
**A.** 64.3 g/L

**Q.** What about the HGB ([1]; 20 mg/kg oral once a day, Day 19) of the same compound?
**A.** 73.3 g/L

**Q.** And the HGB ([1]; 20 mg/kg oral once a day, Day 27)?
**A.** 90.7 g/L

**Q.** What about the HGB ([1]; 40 mg/kg oral once a day, Day 0) of the same compound?
**A.** 87.4 g/L

**Q.** And the HGB ([1]; 40 mg/kg oral once a day, Day 5)?
**A.** 69.4 g/L

**Q.** What about the HGB ([1]; 40 mg/kg oral once a day, Day 12) of the same compound?
**A.** 87.2 g/L

**Q.** What about the HGB ([1]; 40 mg/kg oral once a day, Day 19) of the same compound?
**A.** 89.7 g/L

**Q.** And the HGB ([1]; 40 mg/kg oral once a day, Day 27)?
**A.** 103.6 g/L

**Q.** What about the HGB ([1]; 80 mg/kg oral once a day, Day 0) of the same compound?
**A.** 86.8 g/L

**Q.** And the HGB ([1]; 80 mg/kg oral once a day, Day 5)?
**A.** 76.7 g/L

**Q.** And the HGB ([1]; 80 mg/kg oral once a day, Day 12)?
**A.** 111.0 g/L

**Q.** What about the HGB ([1]; 80 mg/kg oral once a day, Day 19) of the same compound?
**A.** 122.0 g/L

**Q.** What about the HGB ([1]; 80 mg/kg oral once a day, Day 27) of the same compound?
**A.** 139.0 g/L

**Q.** And the “effect on HGB levels (in words)” value ([1]; 20, 40 or 80 mg/kg oral once a day for 4 weeks)?
**A.** improved the HGB levels in the animals and corrected them toward normal

**Q.** And the “thermodynamic stability of crystal form” value ([2]; 50° C.)?
**A.** thermodynamically the more stable crystal form

**Q.** And the “thermodynamic stability of crystal form” value ([2]; room temperature)?
**A.** thermodynamically the more stable crystal form
